US20040077878A1, “Process for the preparation of tri-nitrogen containing heteroaryl-diamine derivatives useful as pharmaceutical agents and methods of producing pharmaceutical agents” (priority 2002, published 2004)
pIC50: −log10 of the molar value.

Target: IMPDH II enzyme (Homo sapiens, UniProt P12268)
Assay: assay against the IMPDH II enzyme
Format: biochemical
Excerpt: The present invention enables an efficient and effective production of 1,2,4-triazole-3,5-diamine and/or 1,3,5-triazine-2,4-diamine derivatives, which are useful as pharmaceutical agents and/or as components of pharmaceutical agents, particularly inhibitors of IMPDH, anti-hypertensive agents, and neurokinin receptor antagonists, from readily-available starting compounds. This process provides a convenient synthesis of the target compound from a substituted isothiocyanate, hydrogencyanamide salt, a substituted hydrazine and/or a substituted amidine in moderate to good yield. […] Additionally, tri-nitrogen containing heteroaryl-diamine derivatives of formula (I), 1,2,4-triazole-3,5-diamines of formula (A) and/or (B) and 1,3,5-triazine-2,4-diamines of formula (C) may be readily coupled to a pharmacological core component to provide pharmaceutically active agents, such as, for examples, the compounds described in WO 00/25780, Dunstan et al., Tetrahedron Lett., Vol. 39, (1998), at pp. 7983-7986, U.S. Pat. No. 6,436,928, U.S. patent application No. 20020038030, U.S. Pat. No. 6,172,077 B1, U.S. Pat. No. 5,232,938, U.S. Pat. No. 4,569,933, WO 01/74806A1, WO 01/56987 A1, and EP 1107962 A1, incorporated herein by reference.

`COc1cc(Nc2nc(N)n(-c3ccccc3)n2)ccc1-c1cnco1` [Example 13] showed a pIC50 of 6.82.
